From patent US10202404B2, “Polycyclic pyridone derivative having integrase inhibitory activity” (Shionogi & Co., Ltd., priority 2014, dated 2019)

System: HIV
Assay: Anti-HIV activity (MT-4 cells, MTT)
Type: cell-based
Settings: 50% HIV inhibition concentration, MT-4 cells infected with HIV, incubated 4 days, MTT readout
Description: Previously, a series of two-fold dilution on test samples were carried out in a 96-well plate (50 μL/well). Two plates were made for measuring anti-HIV activity and measuring cytotoxicity. For each agent, measurement in duplicate was carried out. An MT-4 cell suspension of 2.5×10^5/mL was dispensed at 100 μL/well onto the 96-well plate containing the test samples. An HIV virus solution was dispensed at 50 μL/well onto the 96-well plate containing the test samples and the cell. To the plate for measuring cytotoxicity, a culture solution was dispensed at 50 μL/well. It was mixed by a plate mixer, and then incubated in a CO2 incubator for 4 days. […] Thirty microliters of a MTT (3-(4,5-dimethylthiazol-2-yl)-2,5-diphenyltetrazolium bromide) solution was dispensed to each well.
A reaction was allowed to occur in a CO2 incubator for an hour. From each well, 150 μL of the supernatant was removed such that cells are not sucked. One-hundred and fifty microliters of a cell lysis solution was added thereto, and then it was mixed well by a plate mixer until the whole cells are lysed. The mixed 96-well plates were measured by a microplate reader at two wavelengths, 560 nm/690 nm. Based on the following calculation formula, 50% HIV inhibition concentration (EC50) was calculated. EC50=10Z Z=(50%−Low %)/(High %−Low %)×{log(High conc.)−log(Low conc.)}+log(Low conc.) Based on the following calculation formula, 50% cytotoxic concentration (CC50) was calculated. CC50=10Z Z=(50%−Low %)/(High %−Low %)×{log(High conc.)−log(Low conc.)}+log(Low conc.) Based on the following calculation formula, selectivity index (ST) was calculated. SI=CC50/EC50 (Result)

[1] = Human immunodeficiency virus 1, MT4, 96 h

| EC50 [nM] | Structure (SMILES) | EC50 [1] [nM] |
| --- | --- | --- |
|  | O=C1c2c(O)c(=O)c(-c3ncc(Cc4cccc(Cl)c4F)s3)cn2C[C@H]2CCCCN12 [Compound B-18] | 14 |
|  | C[C@H]1[C@H]2CCCN2[C@@H]2Cn3cc(-c4nnc(Cc5ccc(F)cc5F)s4)c(=O)c(O)c3C(=O)N12 [Compound A-62] | 1.6 |
|  | C[C@@H]1CCO[C@H]2Cn3cc(-c4cn(Cc5ccc(F)cc5F)cn4)c(=O)c(O)c3C(=O)N12 [Compound A-64] | 1.6 |
|  | C[C@@H]1CCO[C@H]2Cn3cc(-c4nnc(Cc5cc(F)c(F)cc5F)s4)c(=O)c(O)c3C(=O)N12 [Compound A-24] | 4.2 |
|  | O=C1c2c(O)c(=O)c(-c3nnc(Cc4ccc(F)cc4F)s3)cn2C[C@@H]2C[C@@H](F)CCN12 [Compound B-21] | 4 |
|  | C[C@H]1N2C(=O)c3c(O)c(=O)c(-c4nnc(Cc5ccc(F)cc5F)s4)cn3C[C@@H]2OCC1(F)F [Compound A-78] | 4.6 |
|  | C[C@@H]1CO[C@H]2Cn3cc(-c4nnc(Cc5ccc(F)cc5F)s4)c(=O)c(O)c3C(=O)N12 [Compound A-19] | 3.1 |
|  | CCN1CN([C@H](C)C(F)(F)F)C(=O)c2c(O)c(=O)c(-c3nnc(Cc4cccc(Cl)c4F)s3)cn21 [Compound C-6] | 5.7 |
|  | C[C@@H]1CO[C@H]2Cn3cc(-c4ncc(Cc5cccc(Cl)c5F)s4)c(=O)c(O)c3C(=O)N2C1 [Compound A-9] | 7.1 |
|  | C[C@@H]1CCO[C@H]2Cn3cc(-c4nnc(Cc5ccc(F)c(Cl)c5)s4)c(=O)c(O)c3C(=O)N12 [Compound A-33] | 2.5 |
|  | COCc1cc(F)cc(F)c1Cc1nnc(-c2cn3c(c(O)c2=O)C(=O)N2[C@H](C)CCO[C@H]2C3)s1 [Compound A-75] | 10 |
|  | C[C@@H]1CCN2C(=O)c3c(O)c(=O)c(-c4ncc(Cc5cccc(Cl)c5F)s4)cn3C[C@@H]2O1 [Compound A-5] | 8 |
|  | COC(=O)OCOc1c2n(cc(-c3nnc(Cc4ccc(F)cc4F)s3)c1=O)C[C@@H]1OCC[C@@H](C)N1C2=O [Compound D-2] | 8 |
|  | O=C1c2c(O)c(=O)c(-c3nnc(Cc4cccc(Cl)c4F)s3)cn2C[C@H]2CCCN12 [Compound B-4] | 5.5 |
|  | C[C@@H]1CCO[C@H]2Cn3cc(-c4nnc(Cc5cc(C(F)(F)F)cc(Cl)c5F)s4)c(=O)c(O)c3C(=O)N12 [Compound A-34] | 13 |
|  | O=C1c2c(O)c(=O)c(-c3nnc(Cc4ccc(F)cc4F)s3)cn2CN2CCCN12 [Compound C-19] | 4.2 |
|  | COCCN1CN(C)n2cc(-c3ncc(Cc4ccc(F)cc4F)s3)c(=O)c(O)c2C1=O [Compound C-13] | 2.7 |
|  | COC[C@@H]1CCN2C(=O)c3c(O)c(=O)c(-c4nnc(Cc5ccc(F)cc5F)s4)cn3C[C@@H]2O1 [Compound A-68] | 4.6 |
|  | COCCN1Cn2cc(-c3nnc(Cc4ccc(F)cc4F)s3)c(=O)c(O)c2C(=O)N1C [Compound C-26] | 1.5 |
|  | CCN1CN([C@H](C)C(F)(F)F)C(=O)c2c(O)c(=O)c(-c3nnc(Cc4ccc(F)cc4F)s3)cn21 [Compound C-5] | 3.4 |
|  | O=C1c2c(O)c(=O)c(-c3nnc(Cc4ccc(F)cc4F)s3)cn2C[C@@H]2[C@H]3CC[C@H](C3)N12 [Compound B-22] | 3.5 |

| EC50 [nM] | Structure (SMILES) | EC50 [1] [nM] |
| --- | --- | --- |
|  | CCN1CN(CCCOC)C(=O)c2c(O)c(=O)c(-c3nnc(Cc4cccc(Cl)c4F)s3)cn21 [Compound C-8] | 2.4 |
|  | CCN1Cn2cc(-c3nnc(Cc4ccc(F)cc4F)s3)c(=O)c(O)c2C(=O)N1CC [Compound C-21] | 1.5 |
|  | C[C@@H]1CCO[C@H]2Cn3cc(-c4nnc(Cc5cccc(Cl)c5F)s4)c(=O)c(O)c3C(=O)N12 [Compound A-17] | 2.3 |
| 10 | C[C@@H]1CCO[C@H]2Cn3cc(-c4cn(Cc5ccc(F)cc5F)cn4)c(=O)c(O)c3C(=O)N12 [Compound A-49] |  |
|  | Cc1nc(-c2cn3c(c(O)c2=O)C(=O)N2[C@H](C)CCO[C@H]2C3)sc1Cc1ccc(F)cc1F [Compound A-45] | 4.1 |
|  | C[C@@H]1CCO[C@H]2Cn3cc(-c4nnc(Cc5ccc(F)c(F)c5F)s4)c(=O)c(O)c3C(=O)N12 [Compound A-31] | 2.3 |
|  | COCCN1CC[C@H](C)N2C(=O)c3c(O)c(=O)c(-c4nnc(Cc5ccc(F)cc5F)s4)cn3C[C@@H]12 [Compound A-61] | 4.1 |
|  | O=C1c2c(O)c(=O)c(-c3nnc(Cc4c(F)cc(F)cc4F)s3)cn2C[C@H]2CCCCN12 [Compound B-7] | 2.9 |
|  | O=C1c2c(O)c(=O)c(-c3nnc(Cc4ccc(F)cc4F)s3)cn2C[C@H]2CCCCN12 [Compound B-2] | 3.9 |
|  | COCCN1Cn2cc(-c3nnc(Cc4ccc(F)cc4F)s3)c(=O)c(O)c2C(=O)N1CCOC [Compound C-27] | 2 |
|  | CC(=O)Oc1c2n(cc(-c3nnc(Cc4ccc(F)cc4F)s3)c1=O)C[C@@H]1OCC[C@@H](C)N1C2=O [Compound D-1] | 3.8 |
|  | CCN1CN(CCOC)C(=O)c2c(O)c(=O)c(-c3nnc(Cc4ccc(F)cc4F)s3)cn21 [Compound C-2] | 1.4 |
|  | C[C@@H]1CCO[C@H]2Cn3cc(-c4cc(Cc5ccc(F)cc5F)n(C)n4)c(=O)c(O)c3C(=O)N12 [Compound A-79] | 15 |
|  | O=C1c2c(O)c(=O)c(-c3ncc(Cc4ccc(F)cc4F)s3)cn2C[C@H]2CCCCN12 [Compound B-16] | 7.7 |
|  | O=C1c2c(O)c(=O)c(-c3ncc(Cc4ccc(F)cc4F)s3)cn2C[C@H]2CCCN12 [Compound B-15] | 4 |
|  | O=C1c2c(O)c(=O)c(-c3nnc(Cc4ccc(F)cc4F)s3)cn2C[C@@H]2[C@@H]3C[C@@H]3CN12 [Compound B-9] | 2 |
| 2.2 | O=C1c2c(O)c(=O)c(-c3nnc(Cc4cccc(Cl)c4F)s3)cn2CN2CCCCN12 [Compound C-14] |  |
|  | O=C1c2c(O)c(=O)c(-c3nnc(Cc4cccc(Cl)c4F)s3)cn2C[C@@H]2N1C[C@H]1CCCN12 [Compound A-54] | 1.6 |
| 5.8 | CCN1CN(CCOC)C(=O)c2c(O)c(=O)c(-c3ncc(Cc4ccc(F)cc4F)s3)cn21 [Compound C-10] |  |
|  | C[C@@H]1CCO[C@H]2Cn3cc(-c4cn(Cc5ccc(F)cc5F)nn4)c(=O)c(O)c3C(=O)N12 [Compound A-72] | 8.5 |
